In patent US11098061B2 (Celgene CAR LLC, priority 2013, dated 2021):

Assays:
[1] = biological target: p38a activated, mitogen-activated protein kinase-activated protein kinase 2 (MAPKAP-K2 or MK-2) enzyme (Homo sapiens (Human), UniProt P49137); test: MK2 Omnia continuous-read kinase assay for compound potency; type: biochemical; conditions: [MK-2]=0.4 nM, [ATP]=1.0 mM, [ST3-Sox]=10 μM
Description: The protocol below describes a continuous-read kinase assay optimized to measure potency of compounds against p38a activated, mitogen-activated protein kinase-activated protein kinase 2 (MAPKAP-K2 or MK-2) enzyme. The mechanics of the assay platform are best described by the vendor (Invitrogen, Carlsbad, Calif.) on their website at the following URL: invitrogen.com/search/global/searchAction. action?resultPage=1 &resultsPerPage=15 &query=om nia&personaFilterTerm=Support+%26+Troubleshoot
Kinase reactions were started with the addition of 40 μL of MK-2 enzyme and monitored every 71 seconds for 30-240 minutes at λex360/λem485 in a Synergy^2, Synergy^4 or Synergy H^4 plate reader from BioTek (Winooski, Vt.). […] Initial velocity (0 minutes to +30 minutes) from each reaction was estimated from the slope of a plot of relative fluorescence units vs time (minutes) and normalized to the no enzyme and no inhibitor control groups for % Inhibition. The resulting % Inhibition values were then plotted against inhibitor concentration to estimate IC50 from log[Inhibitor] vs Response, Variable Slope model in GraphPad Prism from GraphPad Software (San Diego, Calif.).
[MK-2]=0.4 nM, [ATP]=1.0 mM and [ST3-Sox]=10 μM (ATP ^appKM=8-10 μM)

[2] = biological target: MK2 (Homo sapiens (Human), UniProt P49137); test: MK2 modification assessment by whole protein mass spectrometry; type: binding; conditions: intact MK2, 60 min, 10-fold excess of compound to protein
Experimental: Modification of MK2 is measured by whole protein MS analysis. […] 5 μL aliquots of the samples were diluted with 15 μL of 0.2% TFA prior to micro C4 ZipTipping directly onto the MALDI target using sinapinic acid as the desorption matrix (10 mg/ml in 0.1% TFA:Acetonitrile 50:50). Analysis was performed on a AB Sciex 4800 MALDI TOF/TOF retro fitted with an HM2 detector (CovalX). Percent modification of target MK2 (i.e., the percent of total MK2 modified by the test compound) for each compound was calculated by subtracting the centroid mass of the compound treated MK2 from the centroid mass of the control MK2 and dividing that value with the mass of the compound.

Sequence of MK2 (P49137 whole entry): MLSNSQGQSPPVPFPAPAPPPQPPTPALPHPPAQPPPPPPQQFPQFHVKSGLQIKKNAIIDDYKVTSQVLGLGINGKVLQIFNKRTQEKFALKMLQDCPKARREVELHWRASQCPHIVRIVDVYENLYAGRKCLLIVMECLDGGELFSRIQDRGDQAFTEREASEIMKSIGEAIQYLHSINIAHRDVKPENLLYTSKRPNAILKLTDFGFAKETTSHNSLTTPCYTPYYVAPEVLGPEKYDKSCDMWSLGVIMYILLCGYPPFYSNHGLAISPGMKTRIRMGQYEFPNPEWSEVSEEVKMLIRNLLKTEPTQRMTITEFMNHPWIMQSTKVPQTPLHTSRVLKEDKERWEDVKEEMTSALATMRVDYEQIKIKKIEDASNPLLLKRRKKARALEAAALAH
Sequence of p38a activated, mitogen-activated protein kinase-activated protein kinase 2 (MAPKAP-K2 or MK-2) enzyme (P49137 whole entry): as above

Row | SMILES | IC50 [1] [nM] | MK2 Mass Mod [2]
1 | C=CC(=O)N1CCC[C@H](NC(=O)c2ccc3cc4n(c3c2)C2(CCC2)CNC4=O)C1 [Compound V-47, (S)—N-(1-acryloylpiperidin-3-yl)-1′-oxo-2′,3′-dihydro-1′H-spiro[cyclobutane-1,4′-pyrazino[1,2-a]indole]-7′-carboxamide] | > 1000 | G (mass modification ≤30%)
2 | C=CC(=O)N1Cc2cccc(NC(=O)c3ccc4cc5n(c4c3)C3(CCC3)CNC5=O)c2C1 [Compound V-48, N-(2-acryloylisoindolin-4-yl)-1′-oxo-2′,3′-dihydro-1′H-spiro[cyclobutane-1,4′-pyrazino [1,2-a]indole]-7′-carboxamide] | > 1000 | G (mass modification ≤30%)
3 | C=CC(=O)N[C@@H]1CCCN(C(=O)c2ccc3cc4n(c3c2)C2(CCC2)CNC4=O)C1 [Compound V-52, (R)—N-(1-(1′-oxo-2′,3′-dihydro-1′H-spiro[cyclobutane-1,4′-pyrazino [1,2-a]indol]-7′-ylcarbonyl)piperidin-3-yl)acrylamide] | > 1000 | G (mass modification ≤30%)
4 | C=CC(=O)Nc1cc(NC(=O)c2ccc3cc4n(c3c2)C2(CCC2)CNC4=O)ccc1C [Compound V-53, N-(3-acrylamido-4-methylphenyl)-1′-oxo-2′,3′-dihydro-1′H-spiro[cyclobutane-1,4′-pyrazino[1,2-a]indole]-7′-carboxamide] | > 1000 | E (mass modification of ≥70%)
5 | C=CC(=O)Nc1ccc2[nH]c(-c3ccc4cc5n(c4c3)C3(CCC3)CNC5=O)nc2c1 [Compound V-59, N-(2-(1′-oxo-2′,3′-dihydro-1′H-spiro[cyclobutane-1,4′-pyrazino [1,2-a]indol]-7′-yl)-1H-benzo[d]imidazol-5-yl)acrylamide] | < 100 | G (mass modification ≤30%)
6 | C=CC(=O)Nc1ccc2oc(-c3ccc4cc5n(c4c3)C3(CCC3)CNC5=O)nc2c1 [Compound V-60, N-(2-(1′-oxo-2′,3′-dihydro-1′H-spiro[cyclobutane-1,4′-pyrazino [1,2-a]indol]-7′-yl)benzo[d]oxazol-5-yl)acrylamide] | < 100 | G (mass modification ≤30%)
7 | C=CC(=O)Nc1cc(-c2cc3c(cn2)CCc2c4c(n(C)c2-3)CC2(CC2)NC4=O)ccc1OCCOC [II-7, N-(2-(2-methoxyethoxy)-5-(11′-methyl-7′-oxo-5′,6′,7′,8′,10′,11′-hexahydrospiro[cyclopropane-1,9′-pyrido[3′,4′:4,5]pyrrolo[2,3-f]isoquinolin]-2′-yl)phenyl)acrylamide] | 101 to 500 | E (mass modification of ≥70%)
8 | C=CC(=O)N1CCOc2ncc(-c3ncc4c(n3)-c3[nH]c5c(c3CC4)C(=O)NCC5)cc21 [II-17, 2-(1-acryloyl-2,3-dihydro-1H-pyrido[2,3-b][1,4]oxazin-7-yl)-8,9,10,11-tetrahydro-SH-pyrido[3′,4′:4,5]pyrrolo[3,2-h]quinazolin-7(6H)-one] | < 100 | E (mass modification of ≥70%)
9 | C=CC(=O)N1CCOc2ncc(-c3cc4c(cn3)CCc3c-4[nH]c4c3C(=O)NCC4)cc21 [II-18, 2-(1-acryloyl-2,3-dihydro-1H-pyrido[2,3-b][1,4]oxazin-7-yl)-8,9,10,11-tetrahydro-SH-pyrido[3′,4′:4,5]pyrrolo[2,3-f]isoquinolin-7(6H)-one] | < 100 | E (mass modification of ≥70%)
10 | C=CC(=O)Nc1cc(-c2nccc(-c3cc4c([nH]3)CCNC4=O)n2)cnc1OCCOC [II-21, N-(2-(2-methoxyethoxy)-5-(4-(4-oxo-4,5,6,7-tetrahydro-1H-pyrrolo[3,2-c]pyridin-2-yl)pyrimidin-2-yl)pyridin-3-yl)acrylamide] | < 100 | E (mass modification of ≥70%)
11 | C=CC(=O)Nc1cc(-c2nccc(-c3cc4c([nH]3)CCNC4=O)n2)ccc1OCCOC [II-22, N-(2-(2-methoxyethoxy)-5-(4-(4-oxo-4,5,6,7-tetrahydro-1H-pyrrolo[3,2-c]pyridin-2-yl)pyrimidin-2-yl)phenyl)acrylamide] | < 100 | E (mass modification of ≥70%)
12 | C=CC(=O)N1CCOc2ncc(-c3nccc(-c4cc5c([nH]4)CCNC5=O)n3)cc21 [II-23, 2-(2-(1-acryloyl-2,3-dihydro-1H-pyrido[2,3-b][1,4]oxazin-7-yl)pyrimidin-4-yl)-6,7-dihydro-1H-pyrrolo[3,2-c]pyridin-4(5H)-one] | < 100 | E (mass modification of ≥70%)
13 | C=CC(=O)N1CCOc2ccc(-c3ncc4c(n3)-c3[nH]c5c(c3CC4)C(=O)NCC5)cc21 [II-24, 2-(4-acryloyl-3,4-dihydro-2H-benzo[b][1,4]oxazin-6-yl)-8,9,10,11-tetrahydro-SH-pyrido[3′,4′:4,5]pyrrolo[3,2-h]i quinazolin-7(6H)-one] | < 100 | E (mass modification of ≥70%)
14 | C=CC(=O)N1CCOc2ccc(-c3nccc(-c4cc5c([nH]4)CCNC5=O)n3)cc21 [II-25, 2-(2-(4-acryloyl-3,4-dihydro-2H-benzo[b][1,4]oxazin-6-yl)pyrimidin-4-yl)-6,7-dihydro-1H-pyrrolo[3,2-c]pyridin-4(5H)-one] | < 100 | E (mass modification of ≥70%)

Continued, values first:

Row | IC50 [1] [nM] | MK2 Mass Mod [2] | SMILES
15 | > 1000 | G (mass modification ≤30%) | CC(C)=CC(=O)COc1cc(NC(=O)c2ccc3sc4c(c3c2)NC[C@@H](C)NC4=O)ccc1F [III-2, (R)—N-(4-fluoro-3-((4-methyl-2-oxopent-3-en-1-yl)oxy)phenyl)-3-methyl-5-oxo-2,3,4,5-tetrahydro-1H-benzo[4,5]thieno[3,2-e][1,4]diazepine-9-carboxamide]
16 | > 1000 | F (mass modification of 31-69%) | C[C@@H]1CNc2c(sc3ccc(C(=O)Nc4ccc5c(c4)N(C(=O)/C=C/CN(C)C)CCO5)cc23)C(=O)N1 [III-9, (R,E)-N-(4-(4-(dimethylamino)but-2-enoyl)-3,4-dihydro-2H-benzo[b][1,4]oxazin-6-yl)-3-methyl-5-oxo-2,3,4,5-tetrahydro-1H-benzo[4,5]thieno[3,2-e][1,4]diazepine-9-carboxamide]
17 | < 100 | G (mass modification ≤30%) | C=CC(=O)NC1COCC1NC(=O)c1ccc2sc3c(c2c1)NC[C@@H](C)NC3=O (stereo partly drawn) [III-48]
18 | < 100 | G (mass modification ≤30%) | C=CC(=O)NC1CS(=O)(=O)CC1NC(=O)c1ccc2sc3c(c2c1)NC[C@@H](C)NC3=O (stereo partly drawn) [III-49]
19 | < 100 | G (mass modification ≤30%) | C=CC(=O)NC1CN(C)CC1NC(=O)c1ccc2sc3c(c2c1)NC[C@@H](C)NC3=O (stereo partly drawn) [III-50]
20 | < 100 | G (mass modification ≤30%) | C=CC(=O)N1CC(C)(C)Oc2ccc(-c3ccc4c(ccc5sc6c(c54)NC[C@@H](C)NC6=O)n3)cc21 [III-55, (R)-3-(4-acryloyl-2,2-dimethyl-3,4-dihydro-2H-benzo[b][1,4]oxazin-6-yl)-10-methyl-9,10,11,12-tetrahydro-8H-[1,4]diazepino[5′,6′:4,5]thieno[3,2-f]quinolin-8-one]
21 | 501 to 999 | G (mass modification ≤30%) | C=CC(=O)Nc1cc(NC(=O)c2ccc3sc4c(c3c2)NC[C@@H](C)NC4=O)ccc1C(F)(F)F [III-57, (R)—N-(3-acrylamido-4-(trifluoromethyl)phenyl)-3-methyl-5-oxo-2,3,4,5-tetrahydro-1H-benzo[4,5]thieno[3,2-e][1,4]diazepine-9-carboxamide]
